Measurements published in patent US20220233594A1, “TARGETING OTUB1 IN IMMUNOTHERAPY” (Board of Regents, The University ofTexas System, priority 2019, published 2022).

Key:
Type in all cases: cell-based, mouse
[1] = tested on: WT or Otub1-TKO naive OT-I CD8 T cells; experiment: qRT-PCR analysis of Glut1 and Hk2 expression with AKT inhibitor; details: stimulated with anti-CD3 plus anti-CD28; AKTi vs DMSO
Procedure: Real-time quantitative PCR. RNA was extracted with TRIzol reagent from isolated WT OT-I or Otub1-TKO OT-I CD8 T cells. The RNA samples were subjected to quantitative PCR analyses using the SYBR regent (Bio-Rad). The expression of individual genes was calculated by a standard curve method and was normalized to the expression of Actb.

[2] = tested on: WT or Otub1-TKO naive OT-I CD8 T cells; experiment: Seahorse analysis of extracellular acidification rate (ECAR) with AKT inhibitor; details: activated with anti-CD3 plus anti-CD28 for 24 h; AKTi 3 μM vs DMSO
Procedure: Metabolic assays. OCR and ECAR were measured with an XF96 extracellular flux analyzer (Seahorse Bioscience) following the manufacturer's instruction. Briefly, WT or Otub1-TKO CD8 naive T cells, either freshly isolated or in vitro activated with anti-CD3 plus anti-CD28 (for 24 h), were seeded in XF96 microplates (150,000 cells/well). The plates were quickly centrifuged to immobilize the cells. After incubation in a non-buffered assay medium (Seahorse Biosciences) in a non-CO2 incubator for 30 min, the cells were subjected to glycolysis assays with a XF glycolysis stress test kit (Seahorse Biosciences). Initial measurement of ECAR was done when cells were incubated in a glycolysis stress test medium without glucose to record the baseline. Glucose (10 mM) was then injected to induce ECAR, reflecting glycolysis rate under basal conditions. Subsequently, oligomycin (1 μM) was injected to inhibit mitochondrial ATP production and shift the energy production to glycolysis, thereby measuring the maximum glycolytic capacity (also called stressed ECAR). Finally, a glucose analog, 2-deoxy-glucose (2-DG, 100 mM) was injected to inhibit glycolysis through targeting glucose hexokinase, resulting in decreased ECAR that served as a measure to confirm the glycolysis-dependence of the detected ECAR. […]

[3] = tested on: WT or Otub1-TKO naive OT-I CD8 T cells; experiment: ELISA of cytokines in culture supernatant with AKT inhibitor; details: stimulated with anti-CD3 plus anti-CD28 for 66 h; AKTi vs DMSO
Procedure: T-cell and NK cell purification and in vitro treatments. CD8 and CD4 T cells were isolated from splenocytes with anti-CD8- or anti-CD4-conjugated magnetic beads (Miltenyi), and naive CD8 or CD4 T cells were further purified by FACS sorting to get CD44^loCD62L^hi population. The naive T cells were stimulated in replicate wells of 96-well plates (1×10^5 cells per well) for 66 h, and the culture supernatants were analyzed by ELISA (eBioScience).

With O=c1[nH]c2ccccc2n1C1CCN(Cc2ccc(-c3nc4cc5[nH]cnc5cc4nc3-c3ccccc3)cc2)CC1 [AKTi] the “Glut1 and Hk2 expression (qRT-PCR)” value [1] was “blocked TCR-CD28-stimulated hyper-expression of the glycolysis-regulatory genes, Glut1 and Hk2”, the “extracellular acidification rate (ECAR)” value [2] was “erased the ECAR differences between WT and Otub1-TKO CD8 T cells” and the “cytokine production (ELISA, culture supernatant)” value [3] was “blocked”.
